Measurements as given in US9724340B2, “Antitussive compositions and methods” (Attenua, Inc., priority 2015, dated 2017).

Tested on: conscious guinea pigs
Assay: Citric acid inhalation cough model in conscious guinea pigs
Assay type: in vivo, guinea pig
Conditions: 30 min before citric acid aerosols 0.01M-0.3M
Experimental: Cough suppression was evaluated in conscious guinea pigs using a citric acid inhalation model (Smith et al., 2012). Guinea pigs were pretreated intraperitoneally with drug vehicle (saline), α7 PHA543613 (10 mg/kg) (FIG. 3), or (2S,3R)—N-(2-(3-pyridinyl)methyl)-1-azabicyclo[2.2.2]oct-3-yl)benzofuran-2-carboxamide (30 mg/kg) (FIG. 4). Respiration and cough reflexes were measured using a Buxco inhalation chamber connected to a Biopac data acquisition system. Thirty minutes after vehicle or drug administration, animals were challenged in sequence with ascending aerosol concentrations of citric acid (0.01M-0.3M), with each aerosol delivered for 5 minutes and with 5 minutes interval in between challenges. The cumulative coughs evoked were quantified and results are presented as a mean±standard error of the mean (SEM) of n experiments, where n refers to a single animal). Studies were performed using a nonpaired parallel group design. Differences amongst group means were evaluated by t-test or ANOVA, with a p<0.05 considered statistically significant which is represented by an asterisk (*) in FIG. 3 and FIG. 4.

SMILES | cumulative citric acid evoked coughs (in words) (30 mg/kg intraperitoneally, FIG. 4) | cumulative citric acid evoked coughs (in words) (10 mg/kg intraperitoneally, FIG. 3)
O=C(N[C@@H]1C2CCN(CC2)[C@H]1Cc1cccnc1)c1cc2ccccc2o1 [(2S,3R)—N-(2-((3-pyridinyl)methyl)-1-azabicyclo[2.2.2]oct-3-yl)benzofuran-2-carboxamide] | markedly inhibited citric acid evoked coughs | 
O=C(N[C@H]1CN2CCC1CC2)c1cc2ccoc2cn1 [PHA543613] |  | markedly inhibited citric acid evoked coughs
